Laboratory results: patent US20260092083A1, “VANCOMYCIN DERIVATIVES WITH SIDEROPHORE MODIFICATION AS NOVEL REPURPOSED ANTIBIOTICS TO COMBAT GRAM-NEGATIVE BACTERIAL INFECTION” (priority 2023, published 2026)
≈ marks a conversion by molar mass, not a printed value.

What was measured:
Type in all cases: cell-based
[1] = test system: E. coli (wild-type) BW25113; assay: Broth microdilution MIC, E. coli wild-type; settings: Escherichia coli, iron-depleted CAMHB, OD600 ≤0.15, read-out: MIC (μg/mL) Gram-negative EC
Procedure: (§1) The test compounds including vancomycin hydrochloride were supplied as a 6.4 mg/mL solution in 100% dimethyl sulfoxide (DMSO) aliquoted into individual wells of a 96-well plate (50 μL per well). […] Standardized inocula were added to the MIC test plates, which were incubated for the prescribed times at 35° C. The N. gonorrhoeae strain was incubated in an atmosphere containing 5% CO2.
(§2) The final optical density of each well at 600 nm was measured using a Tecan Spark plate reader. The compound concentration versus OD600 data were then curve fit using custom software. An MIC value was defined as the lowest compound concentration that led to an OD600 value≤0.15 for the E. coli, K. pneumoniae, P. aeruginosa, A. baumannii, or S. aureus strains. For the N. gonorrhoeae strain, an OD600 value≤0.19 was used as a cutoff to define an MIC value; this higher cut-off value was required because the N. gonorrhoeae MIC plates were covered with plastic seals that increased the background OD600 value.
(§3) JMI Laboratories followed current CLSI quality assurance practices when performing the susceptibility tests. MIC values were validated by concurrently testing the CLSI-recommended ATCC QC reference strains S. aureus ATCC 29213 and K. pneumoniae ATCC 700603. The inoculum density during susceptibility testing was monitored by bacterial colony counts. Where applicable, QC ranges for tested reference strains were those ranges approved or published by CLSI for testing in CAMHB. […] Importantly, the CLSI reference method for testing N. gonorrhoeae is the agar dilution MIC method, which was not used here. Thus, CLSI MIC QC ranges for N. gonorrhoeae could not be applied to the antimicrobials studied here.
(§4) Abbreviations: EC, E. coli (wild-type) BW25113; EC efflux^−, E. coli (tolC) JW5503-1; KPN, K. pneumoniae ATCC 700603; PSA, P. aeruginosa PAO1; PSA efflux^−, P. aeruginosa (multi-pump-gene mutant) PAM1626; ACB, A. baumannii JMI #1186154; GC, N. gonorrhoeae WHO-Z; SA, S. aureus ATCC 29213. Broth microdilution MIC values were measured in iron-depleted CAMHB for all strains except for GC, which was tested in fastidious broth.

E. coli (tolC) JW5503-1 = assay: Broth microdilution MIC, E. coli efflux-deficient (tolC); settings: Escherichia coli, read-out: MIC (μg/mL) Gram-negative EC Efflux
Procedure: as §1, §2, §3, §4

[2] = test system: K. pneumoniae ATCC 700603; assay: Broth microdilution MIC, K. pneumoniae; settings: Klebsiella pneumoniae, ATCC700603, read-out: MIC (μg/mL) Gram-negative KPN
Procedure: as §1, §2, §3, §4

P. aeruginosa PAO1 = assay: Broth microdilution MIC, P. aeruginosa; settings: Pseudomonas aeruginosa, iron-depleted CAMHB, OD600 ≤0.15, read-out: MIC (μg/mL) Gram-negative PSA
Procedure: as §1, §2, §3, §4

[3] = test system: P. aeruginosa (multi-pump-gene mutant) PAM1626; assay: Broth microdilution MIC, P. aeruginosa efflux-deficient; settings: Pseudomonas aeruginosa, read-out: MIC (μg/mL) Gram-negative PSA Efflux
Procedure: as §1, §2, §3, §4

[4] = test system: A. baumannii JMI #1186154; assay: Broth microdilution MIC, A. baumannii; settings: Acinetobacter baumannii, iron-depleted CAMHB, OD600 ≤0.15, read-out: MIC (μg/mL) Gram-negative ACB
Procedure: as §1, §2, §3, §4

N. gonorrhoeae WHO-Z = assay: Broth microdilution MIC, N. gonorrhoeae; settings: Neisseria gonorrhoeae, read-out: MIC (μg/mL) Gram-negative GC
Procedure: as §1, §2, §3, §4

S. aureus ATCC 29213 = assay: Broth microdilution MIC, S. aureus; settings: Staphylococcus aureus, ATCC29213, iron-depleted CAMHB, OD600 ≤0.15, read-out: MIC (μg/mL) Gram positive SA
Procedure: as §1, §2, §3, §4

Compound | MIC [1] [µg/mL] | MIC (E. coli (tolC) JW5503-1) [µg/mL] | MIC [2] [µg/mL] | MIC (P. aeruginosa PAO1) [µg/mL] | MIC [3] [µg/mL] | MIC [4] [µg/mL] | MIC (N. gonorrhoeae WHO-Z) [µg/mL] | MIC (S. aureus ATCC 29213) [µg/mL]
CN[C@H](CC(C)C)C(=O)N[C@H]1C(=O)N[C@@H](CC(N)=O)C(=O)N[C@H]2C(=O)N[C@H]3C(=O)N[C@H](C(=O)N[C@H](C(=O)NCCCCCCNC(=O)c4ccc(O)c(O)c4Cl)c4cc(O)cc(O)c4-c4cc3ccc4O)[C@H](O)c3ccc(c(Cl)c3)Oc3cc2cc(c3O[C@@H]2O[C@H](CO)C(O)C(O)[C@H]2O[C@H]2CC(C)(N)[C@H](O)[C@H](C)O2)Oc2ccc(cc2Cl)[C@H]1O (some centres unmarked) [Compound 7] | 64 (≈ 37.3 µM) | 64 (≈ 37.3 µM) | > 64 | > 64 | > 64 | 1 (≈ 0.582 µM) | > 64 | 4 (≈ 2.33 µM)
CN[C@H](CC(C)C)C(=O)N[C@H]1C(=O)N[C@@H](CC(N)=O)C(=O)N[C@H]2C(=O)N[C@H]3C(=O)N[C@H](C(=O)N[C@H](C(=O)NCCCCCCCNC(=O)c4ccc(O)c(O)c4Cl)c4cc(O)cc(O)c4-c4cc3ccc4O)[C@H](O)c3ccc(c(Cl)c3)Oc3cc2cc(c3O[C@@H]2O[C@H](CO)C(O)C(O)[C@H]2O[C@H]2CC(C)(N)[C@H](O)[C@H](C)O2)Oc2ccc(cc2Cl)[C@H]1O (some centres unmarked) [Compound 8] | 64 (≈ 37 µM) | 64 (≈ 37 µM) | > 64 | > 64 | > 64 | 2 (≈ 1.15 µM) | > 64 | 4 (≈ 2.31 µM)
CN[C@H](CC(C)C)C(=O)N[C@H]1C(=O)N[C@@H](CC(N)=O)C(=O)N[C@H]2C(=O)N[C@H]3C(=O)N[C@H](C(=O)N[C@H](C(=O)NCCCCCCCCNC(=O)c4ccc(O)c(O)c4Cl)c4cc(O)cc(O)c4-c4cc3ccc4O)[C@H](O)c3ccc(c(Cl)c3)Oc3cc2cc(c3O[C@@H]2O[C@H](CO)C(O)C(O)[C@H]2O[C@H]2CC(C)(N)[C@H](O)[C@H](C)O2)Oc2ccc(cc2Cl)[C@H]1O (some centres unmarked) [Compound 9] | 64 (≈ 36.7 µM) | 64 (≈ 36.7 µM) | > 64 | > 64 | > 64 | 8 (≈ 4.58 µM) | > 64 | 4 (≈ 2.29 µM)
CN[C@H](CC(C)C)C(=O)N[C@H]1C(=O)N[C@@H](CC(N)=O)C(=O)N[C@H]2C(=O)N[C@H]3C(=O)N[C@H](C(=O)N[C@H](C(=O)NCCCNC(=O)c4cccc(O)c4O)c4cc(O)cc(O)c4-c4cc3ccc4O)[C@H](O)c3ccc(c(Cl)c3)Oc3cc2cc(c3O[C@@H]2O[C@H](CO)C(O)C(O)[C@H]2O[C@H]2CC(C)(N)[C@H](O)[C@H](C)O2)Oc2ccc(cc2Cl)[C@H]1O (some centres unmarked) [Compound 12] | 64 (≈ 39 µM) | 64 (≈ 39 µM) | > 64 | > 64 | > 64 | 4 (≈ 2.44 µM) | > 64 | 2 (≈ 1.22 µM)
CN[C@H](CC(C)C)C(=O)N[C@H]1C(=O)N[C@@H](CC(N)=O)C(=O)N[C@H]2C(=O)N[C@H]3C(=O)N[C@H](C(=O)N[C@H](C(=O)NCCCCNC(=O)c4cccc(O)c4O)c4cc(O)cc(O)c4-c4cc3ccc4O)[C@H](O)c3ccc(c(Cl)c3)Oc3cc2cc(c3O[C@@H]2O[C@H](CO)C(O)C(O)[C@H]2O[C@H]2CC(C)(N)[C@H](O)[C@H](C)O2)Oc2ccc(cc2Cl)[C@H]1O (some centres unmarked) [Compound 13] | 64 (≈ 38.7 µM) | > 64 | > 64 | > 64 | > 64 | 4 (≈ 2.42 µM) | > 64 | 2 (≈ 1.21 µM)
CNC(CC(C)C)C(=O)NC1C(=O)NC(CC(N)=O)C(=O)NC2C(=O)NC3C(=O)NC(C(=O)N[C@H](C(=O)NCCc4cn(CCNC(=O)c5cccc(O)c5O)nn4)c4cc(O)cc(O)c4-c4cc3ccc4O)C(O)c3ccc(c(Cl)c3)Oc3cc2cc(c3OC2OC(CO)C(O)C(O)C2OC2CC(C)(N)C(O)C(C)O2)Oc2ccc(cc2Cl)C1O (some centres unmarked) [Compound 15] | > 64 | > 64 | > 64 | > 64 | > 64 | 16 (≈ 9.29 µM) | > 64 | 4 (≈ 2.32 µM)
CN[C@H](CC(C)C)C(=O)N[C@H]1C(=O)N[C@@H](CC(N)=O)C(=O)N[C@H]2C(=O)N[C@H]3C(=O)N[C@H](C(=O)N[C@H](C(=O)NCCCNS(=O)(=O)c4ccc(O)c(O)c4)c4cc(O)cc(O)c4-c4cc3ccc4O)[C@H](O)c3ccc(c(Cl)c3)Oc3cc2cc(c3O[C@@H]2O[C@H](CO)C(O)C(O)[C@H]2O[C@H]2CC(C)(N)[C@H](O)[C@H](C)O2)Oc2ccc(cc2Cl)[C@H]1O (some centres unmarked) [Compound 16] | 32 (≈ 19.1 µM) | 64 (≈ 38.2 µM) | > 64 | > 64 | > 64 | 4 (≈ 2.38 µM) | > 64 | 4 (≈ 2.38 µM)
CN[C@H](CC(C)C)C(=O)N[C@H]1C(=O)N[C@@H](CC(N)=O)C(=O)N[C@H]2C(=O)N[C@H]3C(=O)N[C@H](C(=O)N[C@H](C(=O)NCCCCNS(=O)(=O)c4ccc(O)c(O)c4)c4cc(O)cc(O)c4-c4cc3ccc4O)[C@H](O)c3ccc(c(Cl)c3)Oc3cc2cc(c3O[C@@H]2O[C@H](CO)C(O)C(O)[C@H]2O[C@H]2CC(C)(N)[C@H](O)[C@H](C)O2)Oc2ccc(cc2Cl)[C@H]1O (some centres unmarked) [Compound 17] | 32 (≈ 18.9 µM) | 64 (≈ 37.8 µM) | > 64 | > 64 | > 64 | 2 (≈ 1.18 µM) | > 64 | 2 (≈ 1.18 µM)
CNC(CC(C)C)C(=O)N[C@H]1C(=O)N[C@@H](CC(N)=O)C(=O)N[C@H]2C(=O)N[C@H]3C(=O)N[C@H](C(=O)N[C@@H](C(=O)NCc4cn(CCNC(=O)c5ccc(O)c(O)c5Cl)nn4)c4cc(O)cc(O)c4-c4cc3ccc4O)[C@H](O)c3ccc(c(Cl)c3)Oc3cc2cc(c3OC2O[C@H](CO)C(O)C(O)[C@H]2O[C@H]2CC(C)(N)[C@H](O)C(C)O2)Oc2ccc(cc2Cl)[C@H]1O (some centres unmarked) [Compound 19] | > 64 | > 64 | > 64 | > 64 | > 64 | 1 (≈ 0.574 µM) | > 64 | 8 (≈ 4.59 µM)
CNC(CC(C)C)C(=O)NC1C(=O)NC(CC(N)=O)C(=O)NC2C(=O)NC3C(=O)NC(C(=O)N[C@H](C(=O)O)c4cc(O)c(CNCCCNC(=O)c5ccc(O)c(O)c5Cl)c(O)c4-c4cc3ccc4O)C(O)c3ccc(c(Cl)c3)Oc3cc2cc(c3OC2OC(CO)C(O)C(O)C2OC2CC(C)(N)C(O)C(C)O2)Oc2ccc(cc2Cl)C1O (some centres unmarked) [Compound 22] | 16 (≈ 9.38 µM) | 32 (≈ 18.8 µM) | > 64 | > 64 | > 64 | 4 (≈ 2.34 µM) | > 64 | 64 (≈ 37.5 µM)
CNC(CC(C)C)C(=O)NC1C(=O)NC(CC(N)=O)C(=O)NC2C(=O)NC3C(=O)NC(C(=O)N[C@H](C(=O)O)c4cc(O)c(CNCCCCNC(=O)c5ccc(O)c(O)c5Cl)c(O)c4-c4cc3ccc4O)C(O)c3ccc(c(Cl)c3)Oc3cc2cc(c3OC2OC(CO)C(O)C(O)C2OC2CC(C)(N)C(O)C(C)O2)Oc2ccc(cc2Cl)C1O (some centres unmarked) [Compound 23] | 64 (≈ 37.2 µM) | > 64 | > 64 | > 64 | > 64 | 8 (≈ 4.65 µM) | > 64 | 64 (≈ 37.2 µM)
CNC(CC(C)C)C(=O)NC1C(=O)NC(CC(N)=O)C(=O)NC2C(=O)NC3C(=O)NC(C(=O)N[C@H](C(=O)O)c4cc(O)c(CNCCNC(=O)c5cccc(O)c5O)c(O)c4-c4cc3ccc4O)C(O)c3ccc(c(Cl)c3)Oc3cc2cc(c3OC2OC(CO)C(O)C(O)C2OC2CC(C)(N)C(O)C(C)O2)Oc2ccc(cc2Cl)C1O (some centres unmarked) [Compound 24] | > 64 | > 64 | > 64 | > 64 | > 64 | 8 (≈ 4.83 µM) | > 64 | 32 (≈ 19.3 µM)
CNC(CC(C)C)C(=O)NC1C(=O)NC(CC(N)=O)C(=O)NC2C(=O)NC3C(=O)NC(C(=O)N[C@H](C(=O)O)c4cc(O)c(CNCCN[S@SP3](=O)(=O)c5ccc(O)c(O)c5)c(O)c4-c4cc3ccc4O)C(O)c3ccc(c(Cl)c3)Oc3cc2cc(c3OC2OC(CO)C(O)C(O)C2OC2CC(C)(N)C(O)C(C)O2)Oc2ccc(cc2Cl)C1O (some centres unmarked) [Compound 25] | 16 (≈ 9.45 µM) | 64 (≈ 37.8 µM) | > 64 | > 64 | > 64 | 32 (≈ 18.9 µM) | > 64 | 4 (≈ 2.36 µM)
